From PMC3970809, “Spectral characteristics of the mutant form GGBP/H152C of D-glucose/D-galactose-binding protein labeled with fluorescent dye BADAN: influence of external factors” (PeerJ, 2014)

Target: T1, D-glucose/D-galactose-binding protein (GGBP), mutant form GGBP/H152C labeled with BADAN (Escherichia coli, UniProt P0AEE5, H175C)
T1 construct: gene mglB; GGBP/H152C-BADAN (BADAN linked to Cys 152)
Experiment: BADAN fluorescence titration (Kd by nonlinear regression); stopped-flow binding kinetics

T1 sequence (P0AEE5 24-332 H175C limits assumed): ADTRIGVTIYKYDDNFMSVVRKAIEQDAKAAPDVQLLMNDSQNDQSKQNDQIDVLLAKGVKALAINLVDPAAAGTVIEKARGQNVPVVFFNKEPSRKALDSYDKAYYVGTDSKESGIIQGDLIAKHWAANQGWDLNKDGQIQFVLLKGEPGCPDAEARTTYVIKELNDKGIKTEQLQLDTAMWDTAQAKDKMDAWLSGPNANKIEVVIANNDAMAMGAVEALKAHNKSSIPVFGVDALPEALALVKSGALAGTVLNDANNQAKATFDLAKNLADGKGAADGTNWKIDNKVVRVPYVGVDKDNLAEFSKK

OC[C@H]1OC(O)[C@H](O)[C@@H](O)[C@@H]1O (stereo partly shown) [Glc]
Kd: 8.5 µM
